The target of data set [1] is Mouse histone deacetylase. The data set is classed as biochemical. The settings on record: enzyme from FM3A cells; [3H]acetyl histone; 37° C. 10 minutes. The protocol:
In an enzyme system using a radio-labelled acetylated histone as a substrate, histone deacetylase enzyme inhibiting activity was evaluated. The basic conditions were in accordance with the method of Yoshida et al. (J. Biol. Chem., 265, 17174-17179, 1990).
Mouse histone deacetylase to be used was partially purified from FM3A cells. Cells were suspended in HDA buffer (15 mM potassium phosphate, 5% glycerol, 0.2 mM EDTA, pH 7.5), homogenized and centrifuged (35000×g, 10 min) to collect the nuclei which in turn were homogenized in the same buffer containing 1 M (NH4)2SO4. After ultrasonic disruption and centrifugation, the concentration of (NH4)2SO4 in the supernatant was increased to 3.5 M to precipitate deacetylase enzyme proteins. This precipitate was redissolved in HDA buffer, dialyzed against HDA buffer, applied to DEAE-cellulose column and eluted in NaCl gradient. Active fractions were used as a histone deacetylase enzyme solution.
As a substrate, [^3H]acetyl histone was used. In a culture solution of FM3A cells in the presence of 5 mM sodium n-butyrate, [^3H]acetate was added, followed by incubation for 30 minutes to radio-label the histone. The histone was prepared in a conventional manner and used as a substrate solution.
An assay was performed by adding a compound to be tested at a given concentration while using a no-addition control group, and by incubating the substrate solution and the enzyme solution at 37° C. for 10 minutes (reaction volume, 100 μl). The enzyme reaction was stopped by adding 10 μl of concentrated hydrochloric acid and the excised [^3H]acetate was extracted with ethyl acetate for radioactivity measurement. The inhibiting activity was expressed by a concentration at which the enzyme activity in the control group was inhibited by 50% (50% inhibiting concentration).

The conditions of data set [2]: rat, in vivo, 10 mg/kg. The protocol: Under anesthesia with Ketamine/Kylazine mixture, SD rats were administered with HDA-31 into the tail vein (10 mg/kg; 2 ml/kg). The drug was dispersed in PBS and neutralized with NaOH and the resulting suspension was used. After administration, blood was taken from the carotid artery at a given interval of time (using heparin as an anti-coagulant) and centrifuged to prepare plasma. HDA-31 in the plasma was extracted with MTBE (methyl-t-butyl-ether) and separated by reverse-phase HPLC and a peak area corresponding to HDA-31 was quantitatively determined with a mass spectrometer.

In data set [3] the test system is liver cancer MH134 cell line. Briefly: Cell proliferation inhibition (72 hours). The settings on record: read-out: 50% proliferation inhibiting concentration MH134 (nM) mean. Type of data set: cell-based, mouse.
The subject of data set [4] is colon cancer Colon26 cell line. Description: Cell proliferation inhibition (72 hours). The data set is classed as cell-based, mouse. The settings on record: read-out: 50% proliferation inhibiting concentration Colon 26 (nM) mean.
The next data set concerns leukemia L1210 cell line. Description: Cell proliferation inhibition (72 hours). The data set is classed as cell-based, mouse. To be noted: read-out: 50% proliferation inhibiting concentration L1210 (nM) mean.
A further data set concerns MH134. Description: In vivo anti-cancer activity in mouse (ascites tumor system). The settings on record: for Median Survival days (T/C %): MH134 ascites, C3H/HeN mouse. How it is done:
(§1) With respect to an ascites tumor system, in vivo anti-cancer activity of the cyclic tetrapeptide compounds according to the present invention was evaluated using cancer-carrying mouse. The cancer cells used were L1210, B16, Colon26and MH134. These cancer cells were cultured in a conventional manner and suspended in PBS, and 10^5 cells of L1210, or 10^6 cells of B16, Colon26 or MH134 were intraperitoneally transplanted into each mouse (100 μl/mouse). The mouse used was CDF1, BDF1, CDF1 or C3H/HeN (male, 7 weeks in age) for L1210, B16, Colon 26or MH134, respectively. Drug administration was started from the day next to the transplantation of cancer cells. For L1210, 0.5% carboxymethyl cellulose Na suspension and for other cancer cells, PBS solution (actually, as suspension neutralized with NaOH) were continuously administered everyday (100 μl/mouse). The period of administration was 4 days for L1210, 9 days for B16 and MH134, and 8 days for Colon26.
(§2) After the administration period passed, the mice administered were bred and median survival days were calculated on the basis of the number of days from the transplantation of cancer cells to death. The percent ratio (T/C%) between the median survival days (C) for a control group to which an equal amount of a drug-free solution was administered and the median survival days (T) of the treated group administered with the drug was determined.

In a further data set the test system is B16. The description is as above. The settings on record: for Median Survival days (T/C %): B16 ascites, BDF1 mouse. How it is done:
as §1, §2

Setting [5] is: 0.015 mg/mouse everyday for 9 days.
The mark [6] stands for this setting: 0.05 mg/mouse everyday for 9 days.
[7] abbreviates: 0.15 mg/mouse everyday for 9 days.

Non-standard residues stand in square brackets, D forms with d. Residues, ends and D or L forms follow the SMILES beside them. *: point of attachment. Asu = N[C@@H](CCCCCC(=O)O)C(=O)O; NHOH = ON*

Consider `CC[C@H](C)[C@@H]1NC(=O)[C@@H](Cc2ccc(OC)cc2)NC(=O)[C@H](CCCCCC(=O)NO)NC(=O)[C@H]2CCCN2C1=O` [HDA-31, cyclo(-L-Asu(NHOH)-D-Tyr(Me)-L-Ile-D-Pro-)] (cyclo([Asu](NHOH)[dY](Me)I[dP])), for which the IC50 in data set [1] is 2.08 nM; in data set [3], 50.7 nM; in data set [4], 33 nM; in the data set with leukemia L1210 cell line, 18.8 nM. Besides, in data set [2], the “concentration in blood (plasma) after intravenous administration” value is on record as “concentrations in blood exceeding the stated effective concentrations were maintained over a few hours”. The figures for the life-saving effect entry in the data set on MH134 (MH134 ascites tumor) and with B16 (B16 ascites tumor) were “no life-saving effect was observed” and “obviously exhibited a life-saving effect”, respectively. Moreover, the “Median Survival days (T/C %)” value was determined as 95.8% in the data set with MH134 (setting [5]); 85.4% in the data set with MH134 (setting [6]); 91.7% in the data set on MH134 (setting [7]); 117% in the data set with B16 (setting [5]); 119% in the data set on B16 (setting [6]); 139% in the data set on B16 (setting [7]).

(Values after patent US6399568B1, “Cyclic tetrapeptide derivatives and medicinal use thereof” (Japan Energy Corporation, priority 1997, dated 2002).)
